Series [1] in a line: Antiproliferative activity against human HCT116 cells assessed as growth inhibition after 72 hrs by MTS assay. The series is classed as functional. The settings on record: HCT-116, 72 h.
The subject of series [2] is HeLa. Nature of the series: Induction of SV40 promoter-mediated luciferase gene expression in human HeLa cells at 0.01 to 100 uM after 24 hrs by luminescence assay. The format is cell-based. The following applies: Betapolyomavirus macacae.
Series [3] has as its system HeLa. The series is described as follows: Induction of SV40 promoter-mediated luciferase gene expression in human HeLa cells co-expressing SV40 enhancer at 0.01 to 100 uM after 24 hrs by luminescence assay. The series is classed as cell-based. The settings on record: Betapolyomavirus macacae.
Series [4] concerns HeLa. Nature of the series: Growth inhibition of human HeLa cells at 0.01 to 100 uM after 24 hrs. The format is cell-based.
The test system of series [5] is HeLa. Nature of the series: Induction of SV40 promoter-mediated luciferase gene expression in human HeLa cells after 24 hrs by RT-PCR analysis. The settings on record: Betapolyomavirus macacae. The series is classed as cell-based.
For series [6], the target named is T1, Luciferin 4-monooxygenase (Luciola lateralis) (UniProt Q01158).
T1 sequence (whole entry): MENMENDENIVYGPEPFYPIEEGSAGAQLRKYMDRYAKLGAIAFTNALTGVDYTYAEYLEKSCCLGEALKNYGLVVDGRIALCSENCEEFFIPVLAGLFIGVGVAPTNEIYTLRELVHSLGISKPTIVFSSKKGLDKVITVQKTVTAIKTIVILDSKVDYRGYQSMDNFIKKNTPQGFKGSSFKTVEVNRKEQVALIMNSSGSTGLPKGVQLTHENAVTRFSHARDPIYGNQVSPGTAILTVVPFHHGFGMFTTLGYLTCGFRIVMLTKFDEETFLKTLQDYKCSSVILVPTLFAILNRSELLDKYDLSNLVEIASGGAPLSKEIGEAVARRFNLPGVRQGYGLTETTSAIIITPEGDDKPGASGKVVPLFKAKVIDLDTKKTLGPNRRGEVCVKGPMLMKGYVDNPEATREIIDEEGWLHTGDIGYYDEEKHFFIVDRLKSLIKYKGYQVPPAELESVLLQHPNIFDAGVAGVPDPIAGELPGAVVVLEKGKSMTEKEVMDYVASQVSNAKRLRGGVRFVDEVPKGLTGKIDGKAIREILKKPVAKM
Nature of the series: Inhibition of recombinant firefly luciferase at 0.0001 to 100 uM by […] in presence of varying concentration of ATP. The following applies: Aquatica lateralis.

A short description of series [7]: Stability of the compound by HPLC analysis. The series is classed as physicochemical.
In series [8] the target is T1, Luciferin 4-monooxygenase (Luciola lateralis). Nature of the series: Inhibition of recombinant firefly luciferase at 0.0001 to 100 uM by […] in presence of varying concentration of D-luciferin. The following applies: Aquatica lateralis.
In series [9] the test system is HeLa. Nature of the series: Induction of SV40 promoter-mediated luciferase gene expression in human HeLa cells at 10 to 100 uM after 24 hrs by RT-PCR analysis. The settings on record: Betapolyomavirus macacae. The format is cell-based.

These results are taken from ChEMBL document CHEMBL3351979, “Total Synthesis and Biological Studies of TMC-205 and Analogues as Anticancer Agents and Activators of SV40 Promoter” (ACS Med Chem Lett, 2014).

Active and inactive are the calls of the source. The calls are words filed in the database; no cut-off is given here.

In general, GI50 refers to the concentration that inhibits growth by half.

For the compound `CC(O)/C=C/c1ccc2c(C(=O)C(F)(F)F)c[nH]c2c1` (stereo not given), in series [1], the GI50 turned out to be 8 µM. In addition, the outcome with HeLa [2] was inactive. Further, in the series with HeLa [3], the result was Active. For the same compound, the Activity result with HeLa [4] is “Non-toxic”.

Regarding `CC(=O)/C=C/c1ccc2c(C(=O)C(F)(F)F)c[nH]c2c1`, the GI50 in [1] is 14 µM.

As for `C=C(C)/C=C/c1ccc2cc[nH]c2c1`, the GI50 in series [1] came out at 147 µM.

For the compound `C=C(C)/C=C/c1ccc2c(CO)c[nH]c2c1`, the GI50 in [1] turned out to be 79 µM.

As to `C=C(C)/C=C/c1ccc2c(C(=O)C(F)(F)F)c[nH]c2c1`, the results for the Activity entry in the series on HeLa [5] and in the series with HeLa [4] were “Dose-dependent effect” and “Non-toxic”, respectively. Further, in series [6], the inhibition entry is “Active”. Further, the concentration for 50% growth inhibition (GI50) in series [1] came out at 39 µM. Moreover, in [7], the Stability entry is given as “Stable”. Moreover, the inhibition result in series [8] is “inactive”. In addition, the outcome in the series on HeLa [2] was inactive. Besides, the outcome with HeLa [3] was Active.

On to `Oc1ccc(/C=C/c2cc(O)cc(O)c2)cc1`, for which the inhibition entry in [6] and in series [8] was “Active” in each case. Further, the outcome with HeLa [9] was Active.

Take `C=C(C)/C=C/c1ccc2c(C(=O)O)c[nH]c2c1`: the GI50 in series [1] was determined as 68 µM. For the same compound, the result in the series with HeLa [2] was inactive. Besides, the result with HeLa [3] was Active. Further, the Activity entry with HeLa [4] was “Non-toxic”.

Regarding `C=C(C)/C=C/c1ccc2c(C(=O)C(F)(F)F)cn(C)c2c1`, the GI50 in [1] is > 500 µM.

Regarding `CC(C)CCc1ccc2c(C(=O)O)c[nH]c2c1`, the GI50 in series [1] is > 500 µM.

With `CC(C)(O)/C=C/c1ccc2c(C(=O)C(F)(F)F)c[nH]c2c1`, the GI50 in [1] is > 500 µM.
